Test results reported in the NIST ThermoML archive (doi:10.1016/j.fluid.2016.02.009).
Numbers after ± are expanded uncertainties.

Details: Liquid, Vibrating tube method

CCOC(C)(C)C [2-ethoxy-2-methylpropane]
Details | mass density [kg/m3]
283.15 K, 100 kPa | 751.23 ± 0.3
283.15 K, 5000 kPa | 756.42 ± 0.33
283.15 K, 10000 kPa | 761.33 ± 0.36
283.15 K, 15000 kPa | 765.98 ± 0.4
283.15 K, 20000 kPa | 770.36 ± 0.43
283.15 K, 25000 kPa | 774.54 ± 0.46
283.15 K, 30000 kPa | 778.52 ± 0.49
283.15 K, 35000 kPa | 782.33 ± 0.53
283.15 K, 40000 kPa | 785.98 ± 0.57
283.15 K, 45000 kPa | 789.49 ± 0.6
283.15 K, 50000 kPa | 792.89 ± 0.64
283.15 K, 55000 kPa | 796.17 ± 0.67
283.15 K, 60000 kPa | 799.33 ± 0.7
283.15 K, 65000 kPa | 802.42 ± 0.73
288.15 K, 100 kPa | 746.2 ± 0.3
288.15 K, 5000 kPa | 751.53 ± 0.33
288.15 K, 10000 kPa | 756.63 ± 0.36
288.15 K, 15000 kPa | 761.42 ± 0.4
288.15 K, 20000 kPa | 765.93 ± 0.43
288.15 K, 25000 kPa | 770.23 ± 0.47
288.15 K, 30000 kPa | 774.31 ± 0.5
288.15 K, 35000 kPa | 778.21 ± 0.54
288.15 K, 40000 kPa | 781.97 ± 0.57
288.15 K, 45000 kPa | 785.55 ± 0.61
288.15 K, 50000 kPa | 789.02 ± 0.64
288.15 K, 55000 kPa | 792.37 ± 0.68
288.15 K, 60000 kPa | 795.56 ± 0.71
288.15 K, 65000 kPa | 798.71 ± 0.74
293.15 K, 100 kPa | 741.05 ± 0.3
293.15 K, 5000 kPa | 746.6 ± 0.33
293.15 K, 10000 kPa | 751.89 ± 0.37
293.15 K, 15000 kPa | 756.83 ± 0.4
293.15 K, 20000 kPa | 761.5 ± 0.44
293.15 K, 25000 kPa | 765.92 ± 0.47
293.15 K, 30000 kPa | 770.13 ± 0.5
293.15 K, 35000 kPa | 774.13 ± 0.54
293.15 K, 40000 kPa | 777.97 ± 0.58
293.15 K, 45000 kPa | 781.65 ± 0.62
293.15 K, 50000 kPa | 785.19 ± 0.65
293.15 K, 55000 kPa | 788.63 ± 0.69
293.15 K, 60000 kPa | 791.91 ± 0.72
293.15 K, 65000 kPa | 795.1 ± 0.75
298.15 K, 100 kPa | 735.9 ± 0.3
298.15 K, 5000 kPa | 741.67 ± 0.33
298.15 K, 10000 kPa | 747.14 ± 0.37
298.15 K, 15000 kPa | 752.27 ± 0.4
298.15 K, 20000 kPa | 757.08 ± 0.44
298.15 K, 25000 kPa | 761.61 ± 0.47
298.15 K, 30000 kPa | 765.96 ± 0.51
298.15 K, 35000 kPa | 770.04 ± 0.55
298.15 K, 40000 kPa | 773.96 ± 0.59
298.15 K, 45000 kPa | 777.75 ± 0.62
298.15 K, 50000 kPa | 781.37 ± 0.66
298.15 K, 55000 kPa | 784.85 ± 0.69
298.15 K, 60000 kPa | 788.21 ± 0.73
298.15 K, 65000 kPa | 791.48 ± 0.76
303.15 K, 100 kPa | 730.67 ± 0.3
303.15 K, 5000 kPa | 736.68 ± 0.33
303.15 K, 10000 kPa | 742.38 ± 0.37
303.15 K, 15000 kPa | 747.69 ± 0.41
303.15 K, 20000 kPa | 752.63 ± 0.44
303.15 K, 25000 kPa | 757.33 ± 0.48
303.15 K, 30000 kPa | 761.74 ± 0.52
303.15 K, 35000 kPa | 765.95 ± 0.56
303.15 K, 40000 kPa | 769.98 ± 0.59
303.15 K, 45000 kPa | 773.86 ± 0.63
303.15 K, 50000 kPa | 777.57 ± 0.67
303.15 K, 55000 kPa | 781.12 ± 0.7
303.15 K, 60000 kPa | 784.56 ± 0.74
303.15 K, 65000 kPa | 787.89 ± 0.77
308.15 K, 100 kPa | 725.44 ± 0.3
308.15 K, 5000 kPa | 731.69 ± 0.33
308.15 K, 10000 kPa | 737.6 ± 0.37
308.15 K, 15000 kPa | 743.07 ± 0.41
308.15 K, 20000 kPa | 748.18 ± 0.44
308.15 K, 25000 kPa | 753.01 ± 0.48
308.15 K, 30000 kPa | 757.57 ± 0.52
308.15 K, 35000 kPa | 761.9 ± 0.56
308.15 K, 40000 kPa | 766.03 ± 0.6
308.15 K, 45000 kPa | 769.97 ± 0.64
308.15 K, 50000 kPa | 773.76 ± 0.68
308.15 K, 55000 kPa | 777.4 ± 0.71
308.15 K, 60000 kPa | 780.9 ± 0.75
308.15 K, 65000 kPa | 784.29 ± 0.78
313.15 K, 100 kPa | 720.14 ± 0.3
313.15 K, 5000 kPa | 726.68 ± 0.34
313.15 K, 10000 kPa | 732.78 ± 0.37
313.15 K, 15000 kPa | 738.45 ± 0.41
313.15 K, 20000 kPa | 743.71 ± 0.45
313.15 K, 25000 kPa | 748.69 ± 0.48
313.15 K, 30000 kPa | 753.36 ± 0.53
313.15 K, 35000 kPa | 757.81 ± 0.57
313.15 K, 40000 kPa | 762.03 ± 0.61
313.15 K, 45000 kPa | 766.08 ± 0.65
313.15 K, 50000 kPa | 769.94 ± 0.68
313.15 K, 55000 kPa | 773.66 ± 0.72
313.15 K, 60000 kPa | 777.23 ± 0.75
313.15 K, 65000 kPa | 780.69 ± 0.79
318.15 K, 100 kPa | 714.82 ± 0.3
318.15 K, 5000 kPa | 721.59 ± 0.34
318.15 K, 10000 kPa | 727.94 ± 0.37
318.15 K, 15000 kPa | 733.82 ± 0.41
318.15 K, 20000 kPa | 739.27 ± 0.45
318.15 K, 25000 kPa | 744.39 ± 0.49
318.15 K, 30000 kPa | 749.2 ± 0.53
318.15 K, 35000 kPa | 753.76 ± 0.57
318.15 K, 40000 kPa | 758.08 ± 0.61
318.15 K, 45000 kPa | 762.23 ± 0.65
318.15 K, 50000 kPa | 766.19 ± 0.69
318.15 K, 55000 kPa | 769.98 ± 0.73
318.15 K, 60000 kPa | 773.61 ± 0.76
318.15 K, 65000 kPa | 777.13 ± 0.8
323.15 K, 100 kPa | 709.43 ± 0.3
323.15 K, 5000 kPa | 716.51 ± 0.34
323.15 K, 10000 kPa | 723.13 ± 0.38
323.15 K, 15000 kPa | 729.2 ± 0.42
323.15 K, 20000 kPa | 734.81 ± 0.45
323.15 K, 25000 kPa | 740.06 ± 0.49
323.15 K, 30000 kPa | 745.02 ± 0.54
323.15 K, 35000 kPa | 749.69 ± 0.58
323.15 K, 40000 kPa | 754.13 ± 0.62
323.15 K, 45000 kPa | 758.36 ± 0.66
323.15 K, 50000 kPa | 762.39 ± 0.7
323.15 K, 55000 kPa | 766.26 ± 0.74
323.15 K, 60000 kPa | 770 ± 0.77
323.15 K, 65000 kPa | 773.58 ± 0.81
328.15 K, 100 kPa | 703.95 ± 0.3
328.15 K, 5000 kPa | 711.38 ± 0.34
328.15 K, 10000 kPa | 718.21 ± 0.38
328.15 K, 15000 kPa | 724.52 ± 0.42
328.15 K, 20000 kPa | 730.3 ± 0.46
328.15 K, 25000 kPa | 735.75 ± 0.5
328.15 K, 30000 kPa | 740.83 ± 0.54
328.15 K, 35000 kPa | 745.64 ± 0.58
328.15 K, 40000 kPa | 750.18 ± 0.63
328.15 K, 45000 kPa | 754.48 ± 0.67
328.15 K, 50000 kPa | 758.63 ± 0.71
328.15 K, 55000 kPa | 762.55 ± 0.74
328.15 K, 60000 kPa | 766.37 ± 0.78
328.15 K, 65000 kPa | 770.52 ± 0.82
333.15 K, 100 kPa | 698.45 ± 0.3
333.15 K, 5000 kPa | 706.19 ± 0.34
333.15 K, 10000 kPa | 713.35 ± 0.38
333.15 K, 15000 kPa | 719.84 ± 0.42
333.15 K, 20000 kPa | 725.83 ± 0.46
333.15 K, 25000 kPa | 731.42 ± 0.5
333.15 K, 30000 kPa | 736.64 ± 0.55
333.15 K, 35000 kPa | 741.54 ± 0.59
333.15 K, 40000 kPa | 746.21 ± 0.63
333.15 K, 45000 kPa | 750.65 ± 0.67
333.15 K, 50000 kPa | 754.86 ± 0.71
333.15 K, 55000 kPa | 758.88 ± 0.75
333.15 K, 60000 kPa | 762.77 ± 0.79
333.15 K, 65000 kPa | 766.51 ± 0.83
